Measured values from patent US20120029054A1, “RNA Interference Mediated Inhibition of GATA Binding Protein 3 (GATA3) Gene Expression Using Short Intefering Nucleic Acid (siNA)” (Merck Sharp & Dohme Corp., priority 2009, published 2012).
[invAb] = inverted abasic unit; m = 2'-O-methyl; r = 2'-OH (RNA); f = 2'-fluoro

Assays:
GATA3 mRNA [1] = test: GATA3 mRNA knock-down (Taqman qRT-PCR) after RNAiMax transfection of human MCF7 cells; screen and IC50 dose response; format: cell-based; conditions: 10 nM siNA, MCF7 cells, 24 hrs
Method: MCF7 (human; ATCC cat# HTB-22): Cells were cultured at 37° C. in the presence of 5% CO2 and grown in Eagle's Minimum Essential medium with supplemented with fetal bovine serum at a final concentration of 10% and 100 μg/mL of streptomycin and 100 U/mL penicillin.
(§1) Cells were plated in all wells of a tissue-culture treated, 96-well plate at a final count of 5000 cells/well in 100 μL of the appropriate culture media. The cells were cultured for 24 hours after plating at 37° C. in the presence of 5% CO2.
(§2) After 24 hours, complexes containing siNA and RNAiMax were created as follows: A solution of RNAiMax diluted 33-fold in OPTI-MEM was prepared. In parallel, solutions of the siNAs for testing were prepared to a final concentration of 120 nM in OPTI-MEM. After incubation of RNAiMax/OPTI-MEM solution at room temperature for 5 min, an equal volume of the siNA solution and the RNAiMax solution were added together for each of the siNAs.
(§3) This solution was incubated at room temperature for 20 minutes. After incubation, 20 uL of the solution was added to each of the relevant wells. The final concentration of siNA in each well was 10 nM and the final volume of RNAiMax in each well was 0.3 ul.
(§4) The time of incubation with the RNAiMax-siNA complexes was 24 hours and there was no change in media between transfection and harvesting, unless otherwise indicated.
(§5) RNA was extracted from a 96-well plate using the TaqMan® Gene Expression Cells-to-CT™ Kit (Cat#4399002) with a modified protocol. Briefly, a 60 uL (1 plate) or 110 uL (2 plates) of the Lysis Solution with DNase I was dispensed into each well of the Lysis Buffer Plate (twin.tec full skirt plate). The lysis buffer and stop plates were stored at 4° C. until the cells were washed.
(§6) The plate was spun at 1100 rpm for 5 minutes. The culture medium was aspirated and discarded from the wells of the culture plate. The lysis was performed automatically using a BioMek FX instrument and method. After the Biomek method was completed, the lysis plate was incubated for 2 min. at room temperature. The lysis plate can be stored for 2 hours at 4° C., or at −20° C. or −80° C. for two months.
(§7) Each well of the reverse transcription plate required 10 uL of 2× reverse transcriptase Buffer, 1 uL of 20× reverse transcription enzyme and 2 uL of nuclease-free water. The reverse transcription master mix was prepared by mixing 2× reverse transcription buffer, 20× reverse transcription enzyme mix, and nuclease-free water. 13 uL of the reverse transcription master mix was dispensed into each well of the reverse transcription plate (semi-skirted). A separate reverse transcription plate was prepared for each cell plate. The plate was loaded onto a Biomek NX or Biomek FX Dual-96 and the Biomek method was run. The program is programmed to automatically added 7 uL of lysate from the cell lysis procedure described above into each well of the reverse transcription plate. The plate is sealed and spun on a centrifuge (1000 rpm for 30 seconds) to settle the contents to the bottom of the reverse transcription plate. The plate is placed in a thermocycler at 37° C. for 60 min, 95° C. for 5 min, and 4° C. until the plate is removed from the thermocycler. Upon removal, if not used immediately, the plate was frozen at −20° C.
(§8) A series of probes and primers were used to detect the various mRNA transcripts of the genes of β-Actin (human cell line only), and of GATA3 and GAPDH in mouse and human cell lines. All Taqman probes and primers for the experiments here-in described were supplied as pre-validated sets by Applied Biosystems, Inc. (see Table 2).
(§9) The assays were performed on an ABI 7900 instrument, according to the manufacturer's instructions. A TaqMan Gene Expression Master Mix (provided in the Cells-to-CT™, Applied Biosystems, Cat #4399002) was used. The PCR reactions were carried out at 50° C. for 2 min, 95° C. for 20 min followed by 40 cycles at 95° C. for 15 secs and 60° C. for 1 min. […]

GATA3 mRNA [2] = test: GATA3 mRNA knock-down (Taqman qRT-PCR) after RNAiMax transfection of mouse RAG cells; format: cell-based; conditions: 10 nM siNA, 24 hrs, average of 2 experiments
Method: RAG (murine; ATCC cat# CCL-142): Cells were cultured at 37° C. in the presence of 5% CO2 and grown in Eagle's Minimum Essential medium with supplemented with 10% of fetal bovine serum, 100 μg/mL of streptomycin, and 100 U/mL penicillin.
as §1, §2, §3, §4, §5, §6, §7, §8, §9

Row | Substance | % KD Human (GATA3 mRNA [1]; average of 3 experiments) [%] | % KD Mouse (GATA3 mRNA [2]) [%] | % KD Human (GATA3 mRNA [1]; * Hs00231122_m1 Taqman Assay) | % KD Human (GATA3 mRNA [1]; ** Hs00922328_m1 Taqman Assay)
1 | 30264-DC: GATA3 siNA duplex, site 690: sense B GAGGAGGuGGAuGuGcuuu TTB (SEQ 81), antisense AAAGcAcAuccAccuccucUU (SEQ 82) (sense GAGGAGGUGGAUGUGCUUUTT; antisense AAAGCACAUCCACCUCCUCUU; chemistry not fully specified) | −20 ± 12 | −18 ± 0 |  | 
2 | 30265-DC: GATA3 siNA duplex, mouse site 2025: sense B GcccGAAAGcGAcAGAucu TTB (SEQ 83), antisense AGAucuGucGcuuucGGGcUU (SEQ 84) (sense GCCCGAAAGCGACAGAUCUTT; antisense AGAUCUGUCGCUUUCGGGCUU; chemistry not fully specified) | −8 ± 13 | 58 ± 0 |  | 
3 | 30266-DC: GATA3 siNA duplex, mouse site 1258: sense B cccuAuGuGcccGAGuAcA TTB (SEQ 85), antisense UGUAcucGGGcAcAuAGGGUU (SEQ 86) (sense CCCUAUGUGCCCGAGUACATT; antisense UGUACUCGGGCACAUAGGGUU; chemistry not fully specified) | −3 ± 5 | 8 ± 5 |  | 
4 | 30267-DC: GATA3 siNA duplex, mouse site 1324: sense B GGGuucGGAuGuAAGucGA TTB (SEQ 87), antisense UCGAcuuAcAuccGAAcccUU (SEQ 88) (sense GGGUUCGGAUGUAAGUCGATT; antisense UCGACUUACAUCCGAACCCUU; chemistry not fully specified) | −13 ± 15 | 40 ± 1 |  | 
5 | 30268-DC: GATA3 siNA duplex, mouse site 1533: sense B GAcAuccuGcGcGaacuGu TTB (SEQ 89), antisense ACAGuucGcGcAGGAuGucUU (SEQ 90) (sense GACAUCCUGCGCGAACUGUTT; antisense ACAGUUCGCGCAGGAUGUCUU; chemistry not fully specified) | 16 ± 3 | 17 ± 2 |  | 
6 | 30269-DC: GATA3 siNA duplex, mouse site 1449: sense B cuGcGGAcucuAccAuAAA TTB (SEQ 91), antisense UUUAuGGuAGAGuccGcAGUU (SEQ 92) (sense CUGCGGACUCUACCAUAAATT; antisense UUUAUGGUAGAGUCCGCAGUU; sense: DNA at AGT, 2'-fluoro at CU, [invAb] at 5' end, 3' end, backbone not given here; antisense: sugars from the 5' end rrrmfmmfmmmmfffmfmmmm, backbone not given here) | −36 ± 9 | 83 ± 0 |  | 
7 | 30270-DC: GATA3 siNA duplex, mouse site 1960: sense B ccAAGuGuGcGAAGAGuuc TTB (SEQ 93), antisense GAAcucuucGcAcAcuuGGUU (SEQ 94, row printed as 30269-DC) (sense CCAAGUGUGCGAAGAGUUCTT; antisense GAACUCUUCGCACACUUGGUU; chemistry not fully specified) | −25 ± 24 | 69 ± 4 |  | 
8 | 30271-DC: GATA3 siNA duplex, mouse site 1620: sense B GuAcuAcAAGcuucAuAAu TTB (SEQ 95), antisense AUUAuGAAGcuuGuAGuAcUU (SEQ 96) (sense GUACUACAAGCUUCAUAAUTT; antisense AUUAUGAAGCUUGUAGUACUU; chemistry not fully specified) | 10 ± 11 | 70 ± 0 |  | 
9 | 30272-DC: GATA3 siNA duplex, mouse site 807: sense B GAGGuAuccuccGAcccAc TTB (SEQ 97), antisense GUGGGucGGAGGAuAccucUU (SEQ 98) (sense GAGGUAUCCUCCGACCCACTT; antisense GUGGGUCGGAGGAUACCUCUU; chemistry not fully specified) |  | 85 ± 0 | 69 ± 3* % | 33 ± 19** %
